# Experimental data published in patent US9096528B2, “2-aminonicotinic acid ester derivative and bactericide containing same as active ingredient” (AGRO-KANESHO CO., LTD., priority 2012, dated 2015).
# Test system: Botrytis cinerea
# Assay: Test on Botrytis cinerea (gray mold) of a cucumber
# Assay type: in vivo
# Settings: 25 ppm; cut cucumber cotyledons inoculated with spore suspension; 20° C. for 72 hours; from lesion diameter vs non-treatment region
# Procedure: A cucumber plant (a plant variety: “Sagami Han-shiro”) of 12 days after seeding was prepared for the test. Parts of cotyledons of the cucumber plant were cut out with leaving about 2 cm of its rachis. Apart from this, a plastic case with a size of 32 cm×24 cm×4.5 cm (length×width×height), at the bottom of which a paper towel sufficiently moistened with water was laid, and on the paper towel a mesh with legs was placed, was prepared. On the mesh, the above-described cut-out parts of cotyledons were placed such that leaves were horizontal. To the central part of each of the cotyledons, 50 μl of a spore suspension (1×10^6 spores/ml) of Botrytis cinerea of a cucumber was added dropwise. Thereafter, each of cotyledons was covered with a paper disc with a diameter of 6 mm. Apart from this, an emulsion prepared according to the above Preparation Example 1 was diluted with an aqueous solution of 0.02% Tween 20 in demineralized water to prepare a diluent of a predetermined concentration. 50 μl of the diluent was dropped on each paper disc. The plastic case was lidded and was placed under the condition of 20° C. for 72 hours, and then the diameter of each lesion was measured and the controlling rate for Botrytis cinerea (gray mold) of a cucumber was calculated according to the following equation. […]
smiles,measurement,value
CCOc1cccc(Oc2ccc(CNC(=O)c3cccnc3N)cc2)c1 [A],Controlling rate (%),54%
